# Experimental data: the supplement of paper PMC10307832
# Legend:
# Test in all cases: relative viability (nuclei count vs DMSO), 5 days (fraction); higher = more cells survive
# Bemcentinib + Crizotinib = compound: Nc1nc(Nc2ccc3c(c2)CC[C@@H](N2CCCC2)CC3)nn1-c1cc2c(nn1)-c1ccccc1CCC2 [Bemcentinib] + C[C@@H](Oc1cc(-c2cnn(C3CCNCC3)c2)cnc1N)c1c(Cl)ccc(F)c1Cl [Crizotinib] (partner 1 µM)
# Outline: (§1)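 Lung cancer cell lines were pin-tool dosed in 1536-well plates on the day after seeding, with either a lone drug or a fixed anchor-drug dose plus five library-drug doses (not always all listed) in √10 steps. Nuclei were counted on 4× images after 5 days. Relative viability is the ratio of treated-well to vehicle-well nuclei counts, with each value a median of duplicate plates.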
# Axitinib + Phenformin = compound: CNC(=O)c1ccccc1Sc1ccc2c(/C=C/c3ccccn3)n[nH]c2c1 [Axitinib] + N=C(N)NC(=N)NCCc1ccccc1 [Phenformin] (partner 250 µM)
# Outline: as §1
# Axitinib + Olaparib = compound: CNC(=O)c1ccccc1Sc1ccc2c(/C=C/c3ccccn3)n[nH]c2c1 [Axitinib] + O=C(c1cc(Cc2n[nH]c(=O)c3ccccc23)ccc1F)N1CCN(C(=O)C2CC2)CC1 [Olaparib] (partner 8 µM)
# Outline: as §1
# [1] = compound: CC1=CC=C(C=C1)C(=O)CN2C3=C(CCCC3)SC2=N [Pifithrin_alpha] + CS(=O)(=O)N1CCN(Cc2cc3nc(-c4cccc5[nH]ncc45)nc(N4CCOCC4)c3s2)CC1 [Pictilisib] (partner 1 µM)
# Outline: as §1
Cell Line,relative viability (Bemcentinib + Crizotinib; first compound 0.04 µM),relative viability (Bemcentinib + Crizotinib; first compound 0.1265 µM),relative viability (Bemcentinib + Crizotinib; first compound 0.4 µM),relative viability (Bemcentinib + Crizotinib; first compound 1.265 µM),relative viability (Bemcentinib + Crizotinib; first compound 4 µM),relative viability (Axitinib + Phenformin; first compound 0.005 µM),relative viability (Axitinib + Phenformin; first compound 0.01581 µM),relative viability (Axitinib + Phenformin; first compound 0.05 µM),relative viability (Axitinib + Phenformin; first compound 0.1581 µM),relative viability (Axitinib + Phenformin; first compound 0.5 µM),relative viability (Axitinib + Olaparib; first compound 0.005 µM),relative viability (Axitinib + Olaparib; first compound 0.01581 µM),relative viability (Axitinib + Olaparib; first compound 0.05 µM),relative viability (Axitinib + Olaparib; first compound 0.1581 µM),relative viability (Axitinib + Olaparib; first compound 0.5 µM),relative viability ([1]; first compound 1 µM),relative viability ([1]; first compound 3.162 µM),relative viability ([1]; first compound 10 µM),relative viability ([1]; first compound 31.62 µM),relative viability ([1]; first compound 100 µM)
NCI-H1650,0.887,0.998,1.05,0.973,0.814,0.488,0.309,0.553,0.352,0.536,0.876,0.712,0.797,0.91,0.89,0.286,0.44,0.53,0.353,0.468
NCI-H1651,0.886,0.882,0.873,0.905,0.878,0.295,0.295,0.347,0.304,0.353,0.194,0.19,0.198,0.175,0.206,0.687,0.541,0.66,0.365,0.528
NCI-H1666,1.01,0.889,0.963,0.861,0.89,0.588,0.559,0.552,0.586,0.502,0.741,0.756,0.7,0.765,0.728,0.351,0.296,0.277,0.238,0.293
NCI-H1734,0.686,0.691,0.669,0.667,0.698,0.423,0.401,0.371,0.404,0.366,0.593,0.571,0.62,0.585,0.747,0.494,0.491,0.481,0.381,0.434
NCI-H1755,0.901,0.878,0.838,0.939,0.901,0.62,0.613,0.604,0.634,0.658,0.897,0.867,0.852,0.847,0.852,0.296,0.451,0.395,0.307,0.39
NCI-H1792,1.02,1.2,1.26,0.965,0.957,0.323,,,0.304,0.186,0.458,0.445,0.576,0.485,0.651,0.156,0.244,0.205,0.178,0.217
NCI-H1915,0.957,1.03,0.911,0.96,0.989,0.385,0.362,0.371,0.35,0.393,0.28,0.255,0.243,0.234,0.284,0.763,0.902,0.775,,0.838
NCI-H1944,1.13,1.11,1.17,1.18,1.1,0.204,0.199,0.206,0.191,0.189,0.469,0.397,0.384,0.402,0.427,0.314,0.341,0.307,,0.308
NCI-H1975,1.07,1.23,1.07,1.1,1.17,0.436,0.43,0.408,0.391,0.446,0.822,0.816,0.859,0.774,0.805,0.232,0.18,0.187,0.193,0.18
NCI-H1993,0.913,0.966,0.876,1.03,1.1,0.494,0.514,0.496,0.592,0.529,1,1.12,1.04,1.01,1.04,,0.747,0.8,0.673,0.846
NCI-H2009,1.01,1.08,1.11,0.951,1.05,0.492,0.497,0.506,0.513,0.577,0.724,0.686,0.698,0.722,0.819,0.658,0.78,0.816,0.365,0.594
NCI-H2023,0.648,0.653,0.723,0.6,0.599,0.426,0.436,0.467,0.372,0.473,0.528,0.487,0.495,0.555,0.574,0.171,0.193,0.151,0.142,0.168
NCI-H2085,0.836,0.802,0.753,0.803,0.919,0.767,0.728,0.742,0.751,0.733,0.775,0.769,0.807,0.758,0.787,0.487,0.498,0.444,0.43,0.404
NCI-H2087,0.827,0.982,0.942,0.999,1.05,0.48,0.418,0.51,0.444,0.563,0.741,0.503,0.642,0.549,0.661,0.74,0.872,0.894,0.453,0.757
NCI-H2126,1.05,1.1,1.01,1.03,1.02,0.528,0.555,0.548,0.552,0.564,0.913,0.907,0.884,0.917,0.944,0.341,0.482,0.405,0.427,0.376
NCI-H2170,1.36,1.36,1.21,1.38,1.31,0.435,0.412,0.468,0.415,0.5,0.693,0.616,0.569,0.595,0.671,0.271,0.302,0.274,0.278,0.33
